In patent US9206219B2, “17-hydroxy-17-pentafluorethyl-estra-4,9(10)-dien-11-aryl derivatives, methods for the production thereof and the use thereof for treating diseases” (Bayer Intellectual Property GmbH, priority 2009, dated 2015):

Assays:
[1] = molecular target: T1, human progesterone receptor A (Homo sapiens, UniProt P06401); assay: Progesterone receptor-antagonistic action in stably transfected SK-N-MC cells, MMTV-LUC reporter (PR-A); assay type: cell-based; conditions: antagonistic potency vs 0.1 nmol/l promegestone, 24 hours
T1 construct: expressed in transfected cells; host or cells: SK-N-MC human neuroblastoma cells, stably transfected with pRChPR-A-neo and pMMTV-LUC
T1 sequence (P06401 1-769 isoform P06401-2): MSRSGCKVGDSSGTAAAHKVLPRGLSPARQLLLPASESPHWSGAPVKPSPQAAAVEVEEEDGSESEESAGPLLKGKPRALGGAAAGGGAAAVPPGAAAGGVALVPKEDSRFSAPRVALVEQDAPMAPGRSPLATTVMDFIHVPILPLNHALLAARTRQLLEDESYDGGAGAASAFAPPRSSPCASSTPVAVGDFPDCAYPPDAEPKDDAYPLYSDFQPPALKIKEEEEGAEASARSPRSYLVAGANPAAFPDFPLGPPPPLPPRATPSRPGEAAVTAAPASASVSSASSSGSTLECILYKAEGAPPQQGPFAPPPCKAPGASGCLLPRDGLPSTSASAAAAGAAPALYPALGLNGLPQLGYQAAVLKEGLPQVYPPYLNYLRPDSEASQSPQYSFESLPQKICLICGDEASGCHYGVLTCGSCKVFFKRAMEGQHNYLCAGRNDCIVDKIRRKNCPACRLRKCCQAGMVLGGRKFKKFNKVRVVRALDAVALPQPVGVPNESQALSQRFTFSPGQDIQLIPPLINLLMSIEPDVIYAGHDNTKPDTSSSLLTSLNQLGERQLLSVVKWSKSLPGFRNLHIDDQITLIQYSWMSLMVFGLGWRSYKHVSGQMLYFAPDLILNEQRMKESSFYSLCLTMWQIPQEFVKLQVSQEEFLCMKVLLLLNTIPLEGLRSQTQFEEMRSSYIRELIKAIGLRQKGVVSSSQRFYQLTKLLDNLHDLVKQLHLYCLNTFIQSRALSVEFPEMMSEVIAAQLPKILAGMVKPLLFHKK
Procedure: (§1) Progesterone Receptor-Antagonistic Action in Stable Transfectants of Human Neuroblastoma Cells (SK-N-MC Cells) with the Human Progesterone A or Progesterone B Receptor and an MN-LUC Reporter Construct
(§2) SK-N-MC cells (human neuroblastoma cells) which have been stably transfected with plasmids expressing the human progesterone receptor B (pRChPR-B-neo) or the human progesterone receptor A (pRChPR-A-neo) and a reporter construct (pMMTV-LUC) were incubated for 24 hours either in the absence (negative control) or in the presence of ascending amounts of the particular test compound (0.01 nmol/l, 0.1 nmol/l, 1 nmol/l, 10 nmol/l, 100 nmol/l and […]), in order to determine the agonistic efficacy. As a positive control of the reporter gene induction, the cells were treated with the synthetic gestagen promegestone (0.01 nmol/l, 0.1 nmol/l, 1 nmol/l, 10 nmol/l, 100 nmol/l and […]). To determine the antagonistic activity, the cells were treated with 0.1 nmol/l promegestone and additionally with ascending amounts of the particular test compound (0.01 nmol/l, 0.1 nmol/l, 1 nmol/l, 10 nmol/l, 100 nmol/l and […]). The activity of the reporter gene LUC (LUC=luciferase) was determined in the cell lysates and measured as RLU (relative light units). All measurements are reported as % efficacy and as EC50 and IC50 concentrations.

[2] = molecular target: T2, human progesterone receptor B (Homo sapiens, UniProt P06401); assay: Progesterone receptor-antagonistic action in stably transfected SK-N-MC cells, MMTV-LUC reporter (PR-B); assay type: cell-based; conditions: antagonistic potency vs 0.1 nmol/l promegestone, 24 hours
T2 construct: expressed in transfected cells; host or cells: SK-N-MC human neuroblastoma cells, stably transfected with pRChPR-B-neo and pMMTV-LUC
T2 sequence (P06401 1-933): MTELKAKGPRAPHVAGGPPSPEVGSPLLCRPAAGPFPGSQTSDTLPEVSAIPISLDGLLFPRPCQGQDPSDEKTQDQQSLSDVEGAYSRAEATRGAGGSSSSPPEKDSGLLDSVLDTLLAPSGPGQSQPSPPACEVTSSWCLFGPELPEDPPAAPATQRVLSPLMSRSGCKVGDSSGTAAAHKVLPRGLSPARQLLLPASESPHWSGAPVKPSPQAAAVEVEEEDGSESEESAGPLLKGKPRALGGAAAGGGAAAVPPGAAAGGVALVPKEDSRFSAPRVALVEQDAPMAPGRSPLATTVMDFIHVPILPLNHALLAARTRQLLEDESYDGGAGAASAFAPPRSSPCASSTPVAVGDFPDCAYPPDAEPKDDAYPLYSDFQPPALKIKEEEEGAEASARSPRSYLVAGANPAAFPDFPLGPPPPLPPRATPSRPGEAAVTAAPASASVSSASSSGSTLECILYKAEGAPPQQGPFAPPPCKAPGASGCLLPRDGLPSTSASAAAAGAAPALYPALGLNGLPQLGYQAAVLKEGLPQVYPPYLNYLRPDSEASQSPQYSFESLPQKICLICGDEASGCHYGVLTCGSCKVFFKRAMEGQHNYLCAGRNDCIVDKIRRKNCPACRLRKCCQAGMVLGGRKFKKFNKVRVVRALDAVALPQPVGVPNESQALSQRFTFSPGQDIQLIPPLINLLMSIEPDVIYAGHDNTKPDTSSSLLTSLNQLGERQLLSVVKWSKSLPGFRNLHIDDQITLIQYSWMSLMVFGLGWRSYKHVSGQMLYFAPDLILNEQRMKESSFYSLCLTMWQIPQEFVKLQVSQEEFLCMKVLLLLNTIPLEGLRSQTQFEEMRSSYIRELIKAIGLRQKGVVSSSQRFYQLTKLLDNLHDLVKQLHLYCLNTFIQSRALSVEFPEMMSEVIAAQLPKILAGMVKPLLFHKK
Procedure: as §1, §2

Row | IC50 [1] [nM] | IC50 [2] [nM] | Compound
1 | 0.1 | 0.1 | CCOC(=O)c1ccc(NC(=O)OCc2ccc([C@H]3C[C@@]4(C)[C@@H](CC[C@@]4(O)C(F)(F)C(F)(F)F)[C@@H]4CCC5=CC(=O)CCC5=C43)cc2)cc1 [Example 52, 4-[4-((8S,11R,13S,14S,17S)-17-hydroxy-13-methyl-3-oxo-17-pentafluoroethyl-2,3,6,7,8,11,12,13,14,15,16,17-dodecahydro-1H-cyclopenta[a]phenanthren-11-yl)benzyloxycarbonylamino]benzoic acid ethyl ester]
2 | 0.3 | 0.1 | C[C@]12C[C@H](c3ccc(CNC(=O)c4cccnc4)cc3)C3=C4CCC(=O)C=C4CC[C@H]3[C@@H]1CC[C@@]2(O)C(F)(F)C(F)(F)F [Example 54, N-[4-((8S,11R,13S,14S,17S)-17-hydroxy-13-methyl-3-oxo-17-pentafluoroethyl-2,3,6,7,8,11,12,13,14,15,16,17-dodecahydro-1H-cyclopenta[a]phenanthren-11-yl)benzyl]nicotinamide]
3 | 43 | 29 | C[C@]12C[C@H](c3ccc(CNC(=O)NCCC(=O)O)cc3)C3=C4CCC(=O)C=C4CC[C@H]3[C@@H]1CC[C@@]2(O)C(F)(F)C(F)(F)F [Example 27, 3-{3-[4-((8S,11R,13S,14S,17S)-17-hydroxy-13-methyl-3-oxo-17-pentafluoroethyl-2,3,6,7,8,11,12,13,14,15,16,17-dodecahydro-1H-cyclopenta[a]phenanthren-11-yl)benzyl]ureido}propionic acid]
4 | 0.01 | 0.08 | C[C@]12C[C@H](c3ccc(CN=[N+]=[N-])cc3)C3=C4CCC(=O)C=C4CC[C@H]3[C@@H]1CC[C@@]2(O)C(F)(F)C(F)(F)F [Example 28, (8S,11R,13S,14S,17S)-11-(4-azidomethylphenyl)-17-hydroxy-13-methyl-17-pentafluoroethyl-1,2,6,7,8,11,12,13,14,15,16,17-dodecahydrocyclopenta[a]phenanthren-3-one]
5 | 138 | 137 | C[C@]12C[C@H](c3ccc(-c4nnn[nH]4)cc3)C3=C4CCC(=O)C=C4CC[C@H]3[C@@H]1CC[C@@]2(O)C(F)(F)C(F)(F)F [Example 31, (8S,11R,13S,14S,17S)-17-hydroxy-13-methyl-17-pentafluoroethyl-11-[4-(1H-tetrazol-5-yl)phenyl]-1,2,6,7,8,11,12,13,14,15,16,17-dodecahydrocyclopenta[a]phenanthren-3-one]
6 | 0.1 | 0.4 | C[C@]12C[C@H](c3ccc(COC(=O)Nc4ccc(Cl)cc4)cc3)C3=C4CCC(=O)C=C4CC[C@H]3[C@@H]1CC[C@@]2(O)C(F)(F)C(F)(F)F [Example 50, (4-chlorophenyl)carbamic acid 4-((8S,11R,13S,14S,17S)-17-hydroxy-13-methyl-3-oxo-17-pentafluoroethyl-2,3,6,7,8,11,12,13,14,15,16,17-dodecahydro-1H-cyclopenta[a]phenanthren-11-yl)benzyl ester]
7 | 25 | 36 | C[C@]12C[C@H](c3ccc(CNC(=O)Nc4ccc(C(=O)O)cc4)cc3)C3=C4CCC(=O)C=C4CC[C@H]3[C@@H]1CC[C@@]2(O)C(F)(F)C(F)(F)F [Example 38, 4-{3-[4-((8S,11R,13S,14S,17S)-17-hydroxy-13-methyl-3-oxo-17-pentafluoroethyl-2,3,6,7,8,11,12,13,14,15,16,17-dodecahydro-1H-cyclopenta[a]phenanthren-11-yl)benzyl]ureido}benzoic acid]
8 | 0.1 | 0.1 | C[C@]12C[C@H](c3ccc([C@@H]4CC4CO)cc3)C3=C4CCC(=O)C=C4CCC3C1CC[C@@]2(O)C(F)(F)C(F)(F)F (single isomer, unassigned) [Example 6A]
9 | 0.07 | 0.2 | Cc1ccc(NC(=O)OCc2ccc([C@H]3C[C@@]4(C)[C@@H](CC[C@@]4(O)C(F)(F)C(F)(F)F)[C@@H]4CCC5=CC(=O)CCC5=C43)cc2)cc1 [Example 48, (4-methylphenyl)carbamic acid 4-((8S,11R,13S,14S,17S)-17-hydroxy-13-methyl-3-oxo-17-pentafluoroethyl-2,3,6,7,8,11,12,13,14,15,16,17-dodecahydro-1H-cyclopenta[a]phenanthren-11-yl)benzyl ester]
10 | 0.3 | 0.6 | CC(C)(C)c1ccc(NC(=O)NCc2ccc([C@H]3C[C@@]4(C)[C@@H](CC[C@@]4(O)C(F)(F)C(F)(F)F)[C@@H]4CCC5=CC(=O)CCC5=C43)cc2)cc1 [Example 35, 1-(4-tert-butylphenyl)-3-[4-((8S,11R,13S,14S,17S)-17-hydroxy-13-methyl-3-oxo-17-pentafluoroethyl-2,3,6,7,8,11,12,13,14,15,16,17-dodecahydro-1H-cyclopenta[a]phenanthren-11-yl)benzyl]urea]
11 | 0.1 | 0.1 | CCOC(=O)CCNC(=O)OCc1ccc([C@H]2C[C@@]3(C)[C@@H](CC[C@@]3(O)C(F)(F)C(F)(F)F)[C@@H]3CCC4=CC(=O)CCC4=C32)cc1 [Example 57, 3-[4-((8S,11R,13S,14S,17S)-17-hydroxy-13-methyl-3-oxo-17-pentafluoroethyl-2,3,6,7,8,11,12,13,14,15,16,17-dodecahydro-1H-cyclopenta[a]phenanthren-11-yl)benzyloxycarbonylamino]propionic acid ethyl ester]
12 | 0.1 | 0.2 | CC(C)NC(=O)OCc1ccc([C@H]2C[C@@]3(C)[C@@H](CC[C@@]3(O)C(F)(F)C(F)(F)F)[C@@H]3CCC4=CC(=O)CCC4=C32)cc1 [Example 42, isopropylcarbamic acid 4-((8S,11R,13S,14S,17S)-17-hydroxy-13-methyl-3-oxo-17-pentafluoroethyl-2,3,6,7,8,11,12,13,14,15,16,17-dodecahydro-1H-cyclopenta[a]phenanthren-11-yl)benzyl ester]
13 | 0.8 | 0.8 | C[C@]12C[C@H](c3ccc(CNC(=O)Nc4ccc(F)cc4)cc3)C3=C4CCC(=O)C=C4CC[C@H]3[C@@H]1CC[C@@]2(O)C(F)(F)C(F)(F)F [Example 33, 1-(4-fluorophenyl)-3-[4-((8S,11R,13S,14S,17S)-17-hydroxy-13-methyl-3-oxo-17-pentafluoroethyl-2,3,6,7,8,11,12,13,14,15,16,17-dodecahydro-1H-cyclopenta[a]phenanthren-11-yl)benzyl]urea]
